Experimental data taken from patent US20230364121A1 (priority 2020, published 2023).
“And” between values parts separate entries of the source, which are not always exact repeats. Equal entries are not always repeated.

Columns and labels:
SARS-CoV-2 viral genome = assay type: cell-based
[1] = biological target: T1, SARS-CoV-2 ExoN (nsp14/nsp10) (Severe acute respiratory syndrome coronavirus 2, UniProt P0DTD1); assay type: biochemical
T1 construct: 50 nM nsp14/nsp10 (1:5) were added for time-course reactions

| SMILES | number of mutations compared to virus control Vc (SARS-CoV-2 viral genome) | resistance to ExoN mediated excision relative to an unmodified RNA 3′-end [1] [fold] | Mean number of mutations, transition A > G (SARS-CoV-2 viral genome) | Mean number of mutations, transition C > T (SARS-CoV-2 viral genome) | Mean number of mutations, transition G > A (SARS-CoV-2 viral genome) | Mean number of mutations, transition T > C (SARS-CoV-2 viral genome) | Number of Mutations, transition A > G (SARS-CoV-2 viral genome) | Number of Mutations, transition C > T (SARS-CoV-2 viral genome) | Number of Mutations, transition G > A (SARS-CoV-2 viral genome) | Number of Mutations, transition T > C (SARS-CoV-2 viral genome) |
| --- | --- | --- | --- | --- | --- | --- | --- | --- | --- | --- |
| CC(C)C[C@H](NC(=O)OCc1ccccc1)C(=O)N[C@@H](C[C@@H]1CCNC1=O)C(O)S(=O)(=O)O (stereo partly shown) [GC376] | slight increase of the number of mutations |  |  |  |  |  |  |  |  |  |
| C[C@@]1(F)[C@H](O)[C@@H](COP(=O)(O)OP(=O)(O)OP(=O)(O)O)O[C@H]1n1cnc2c(=O)[nH]c(N)nc21 [AT-9010, 2′-fluoro-2′-C-methylguanosine-5′-triphosphate] |  | ~4.8 |  |  |  |  |  |  |  |  |
| C[C@@]1(F)[C@H](O)[C@@H](COP(=O)(O)OP(=O)(O)OP(=O)(O)O)O[C@H]1n1ccc(=O)[nH]c1=O [STP, 5′-triphosphate 2′-fluoro-2′-C-methyl uridine] |  | ~1.2 |  |  |  |  |  |  |  |  |
| CC(C)C(=O)OC[C@H]1O[C@@H](n2ccc(NO)nc2=O)[C@H](O)[C@@H]1O [Molnupiravir, molnupiravir] | significant increase in the number of mutations |  | 842 | 592 | 385 | 910.5 | 813 and 871 | 602 and 582 | 385 | 932 and 889 |
| CNc1nc(N)nc2c1ncn2[C@@H]1O[C@H](COP(=O)(N[C@@H](C)C(=O)OC(C)C)Oc2ccccc2)[C@@H](O)[C@@]1(C)F (stereo partly shown) [Compound 1A] | did not show an increased number of mutations |  | 429 | 24.5 | 6 | 473 | 454 and 404 | 22 and 27 | 7 and 5 | 489 and 457 |
| CC(C)C[C@H](NC(=O)OCc1ccccc1)C(=O)N[C@@H](CC1CCNC1=O)C(O)S(=O)(=O)[O-].[Na+] (stereo partly shown) [GC 376] |  |  | 465.5 | 62 | 14.5 | 532.5 | 545 and 368 | 51 and 73 |  | 662 and 403 |
